Data published in the NIST ThermoML archive (doi:10.1021/je301353z).

Test: xn = mol fraction of the nth substance listed
Conditions: 101 kPa, Liquid; for speed of sound: Sing-around technique in a fixed-path interferometer; for mass density: Vibrating tube method

O=C1CCCN1 [2-pyrrolidinone] + c1ccncc1
Conditions	mass density, 293.15 K [kg/m3]	mass density, 298.15 K [kg/m3]	mass density, 303.15 K [kg/m3]	mass density, 308.15 K [kg/m3]	speed of sound, 293.15 K [m/s]	speed of sound, 298.15 K [m/s]	speed of sound, 303.15 K [m/s]	speed of sound, 308.15 K [m/s]
x1 = 0.1333	1001.83	997.07	992.29	987.38	1468.5	1445.6	1426.5	1406.5
x1 = 0.1801	1008.31	1003.57	998.88	994.01	1478.1	1455.5	1436.7	1416.9
x1 = 0.2312	1015.32	1010.62	1006.02	1001.17	1488.6	1466.4	1447.9	1428.3
x1 = 0.2713	1020.76	1016.1	1011.55	1006.71	1496.9	1475.1	1456.6	1437.4
x1 = 0.3312	1028.79	1024.17	1019.7	1014.93	1509.4	1488.1	1469.8	1450.9
x1 = 0.3717	1034.17	1029.56	1025.16	1020.41	1518	1496.8	1478.8	1460
x1 = 0.4312	1041.94	1037.41	1033.04	1028.34	1530.8	1510	1491.9	1473.6
x1 = 0.4752	1047.59	1043.13	1038.77	1034.15	1540.2	1519.7	1501.8	1483.5
x1 = 0.5316	1054.74	1050.35	1046.02	1041.5	1552.3	1532.1	1514.4	1496.3
x1 = 0.5717	1059.77	1055.45	1051.12	1046.65	1560.9	1541	1523.2	1505.6
x1 = 0.6219	1065.97	1061.74	1057.4	1053.03	1571.9	1552.1	1534.4	1517
x1 = 0.6772	1072.71	1068.57	1064.23	1059.98	1583.7	1564.5	1546.7	1529.5
x1 = 0.7314	1079.26	1075.19	1070.86	1066.7	1595.4	1576.4	1558.8	1541.7
x1 = 0.7714	1084.05	1080.04	1075.69	1071.59	1603.9	1585.1	1567.6	1550.7
x1 = 0.8312	1091.16	1087.2	1082.86	1078.85	1616.4	1598.2	1580.7	1564.3
x1 = 0.8712	1095.91	1091.96	1087.64	1083.64	1624.7	1606.7	1589.3	1573.2
x1 = 0.9013	1099.48	1095.53	1091.23	1087.24	1630.8	1613.2	1596	1580
x1 = 0.9311	1103.03	1099.05	1094.78	1090.78	1636.8	1619.6	1602.4	1586.6

c1ccncc1 [pyridine] + CN1CCCC1=O
Conditions	mass density, 293.15 K [kg/m3]	mass density, 298.15 K [kg/m3]	mass density, 303.15 K [kg/m3]	mass density, 308.15 K [kg/m3]	speed of sound, 293.15 K [m/s]	speed of sound, 298.15 K [m/s]	speed of sound, 303.15 K [m/s]	speed of sound, 308.15 K [m/s]
x2 = 0.1276	994.55	989.82	985.09	980.3	1467.8	1445	1425.5	1405.3
x2 = 0.1779	998.64	993.95	989.28	984.53	1478.4	1455.9	1436.8	1416.4
x2 = 0.2348	1003	998.35	993.72	988.98	1490.6	1468.4	1449.4	1429.1
x2 = 0.2664	1005.29	1000.65	996.04	991.33	1497.6	1475.5	1456.2	1436.2
x2 = 0.3291	1009.56	1004.94	1000.35	995.65	1511.1	1489	1469.8	1449.7
x2 = 0.3707	1012.2	1007.56	1002.99	998.31	1519.6	1498	1478.9	1458.8
x2 = 0.4328	1015.86	1011.21	1006.65	1001.96	1532.2	1510.7	1491.6	1471.5
x2 = 0.4749	1018.16	1013.51	1008.96	1004.25	1540.4	1518.6	1499.5	1479.4
x2 = 0.5215	1020.5	1015.82	1011.28	1006.63	1548.4	1527	1508.3	1487.9
x2 = 0.5647	1022.48	1017.8	1013.27	1008.63	1555.7	1534.4	1515.3	1495.4
x2 = 0.6364	1025.43	1020.74	1016.23	1011.56	1565.6	1544.5	1525.6	1505.9
x2 = 0.6778	1026.91	1022.19	1017.71	1013.05	1569.8	1549	1530.8	1510.5
x2 = 0.7312	1028.58	1023.87	1019.36	1014.76	1574.5	1553.6	1535.6	1515.4
x2 = 0.7701	1029.65	1024.9	1020.4	1015.79	1576.5	1556.2	1537.8	1518.1
x2 = 0.8321	1031.09	1026.29	1021.76	1017.16	1577.6	1557.6	1539.3	1519.7
x2 = 0.8711	1031.8	1026.99	1022.43	1017.79	1576.7	1556.8	1538.9	1519.1
x2 = 0.9011	1032.27	1027.41	1022.83	1018.17	1575.4	1555.7	1537.4	1517.6
x2 = 0.9312	1032.65	1027.76	1023.14	1018.45	1573.3	1553.5	1535.4	1515.6
